Experiment [1] deals with senescent cells in osteoarthritic joint of mice after ACL surgery. The experiment can be described thus: Osteoarthritis mouse model (ACL surgery), intra-articular treatment. The format is in vivo. To be noted: for histopathology: destruction of the proteoglycan layer: Nutlin-3A in C57BL/6J, GCV 2.5 μg intra-articular in 3MR mice. The protocol:
Parallel studies were performed. One study investigated the effect of eliminating senescent cells with ganciclovir (GCV) in 3MR mice. Mice underwent surgery to cut the anterior cruciate ligament of one rear limb to induce osteoarthritis in the joint of that limb. During week 2 post-surgery, 3MR mice received 2.5 μg GCV to the operated knee by intra-articular injection, qd for 5 days, with a 2nd treatment (2.5 μg GCV qd for 5 days) during week 4 post-surgery. At the end of 4 weeks post-surgery, operated joints of the mice were monitored for presence of senescent cells, assessed for function, monitored for markers of inflammation, and underwent histological assessment.
In a parallel study, C57BL/6J mice underwent surgery to cut the anterior cruciate ligament of one rear limb to induce osteoarthritis in the joint of that limb. During week 3 and week 4 post-surgery, the mice were treated with 5.8 μg of Nutlin-3A (n=7) per operated knee by intra-articular injection, qod for 2 weeks. At the end of 4 weeks post-surgery, joints of the mice were monitored for presence of senescent cells, assessed for function, monitored for markers of inflammation, and underwent histological assessment.
Two control groups of mice were included in the studies performed: one group comprising C57BL/6J or 3MR mice that had undergone a sham surgery (n=3) (i.e., surgical procedures followed except for cutting the ACL) and intra-articular injections of vehicle parallel to the GCV-treated group; and one group comprising C57BL/6J or 3MR mice that had undergone an ACL surgery and received intra-articular injections of vehicle (n=5) parallel to the GCV-treated group.
RNA from the operated joints of mice from the Nutlin-3A treated mice was analyzed for expression of SASP factors (mmp3, IL-6) and senescence markers (p16). qRT-PCR was performed to detect mRNA levels. […] RNA from the operated joints of mice was also analyzed for expression of type 2 collagen and compared with expression of actin as a control.
Function of the limbs was assessed 4 weeks post-surgery by a weight bearing test to determine which leg the mice favored (FIG. 39). The mice were allowed to acclimate to the chamber on at least 3 occasions prior to taking measurements. Mice were maneuvered inside the chamber to stand with 1 hind paw on each scale. The weight that was placed on each hind limb was measured over a 3-second period. At least 3 separate measurements were made for each animal at each time point. The results were expressed as the percentage of the weight placed on the operated limb versus the contralateral unoperated limb.
The function of the limbs was also assessed at 4 weeks post-surgery by hotplate analysis to show sensitivity and reaction to pain stimulus. In brief, a mouse was placed on a hotplate at 55° C. When placed on the hot surface of the plate, mice will lift their paws and lick them (paw-lick response) due to attainment of pain threshold. The latency period for the hind limb response (paw-lick response) is recorded as response time.
Histopathology of osteoarthritis induced by ACL surgery illustrated that the proteoglycan layer was destroyed.

The test system of experiment [2] is p16-3MR mice fed a high fat diet. Description: High fat feeding-induced senescence in p16-3MR mice, SA-β-Gal staining of adipose tissue. In kind it is in vivo, mouse. To be noted: 25 mg/kg daily for five consecutive days; p=<0.004. Here is the method: Groups of p16-3MR mice (n=6) were fed a high fat diet (60% fat) for four months mice or a regular chow diet. The presence of senescence cells was determined by measuring luminescence (i.e., p16 positive cells). […] Animals were then treated with ganciclovir or vehicle to determine if removal of senescent cells reduced the presence of senescent cells in adipose tissue. Groups of animals were treated with ganciclovir or vehicle. Ganciclovir (25 mg/kg) was administered daily for five consecutive days. The presence of senescent cells in perirenal, epididymal, or subcutaneous inguinal adipose tissue was detected by SA-β-Gal staining. Data were analyzed by ANOVA.

Molecules are shown by their SMILES. “Also recorded” adds a separate entry of the source.

On to `Nc1nc(O)c2ncn(COC(CO)CO)c2n1` [ganciclovir], for which the “histopathology: destruction of the proteoglycan layer” value in experiment [1] is reported as “same impact on pathophysiology of osteoarthritis as Nutlin-3A”. In experiment [2], the “presence of senescent cells in epididymal fat (SA-β-Gal)” value is “significant reduction”.
For the compound `COc1ccc(C2=N[C@@H](c3ccc(Cl)cc3)[C@@H](c3ccc(Cl)cc3)N2C(=O)N2CCNC(=O)C2)c(OC(C)C)c1` [Nutlin-3a], the “senescent cells in the joint (p16, IL-6, MMP13 mRNA)” value in experiment [1] (5.8 μg per operated knee intra-articular qod for 2 weeks, 4 weeks post-surgery) is “clears senescent cells from the joint”. Moreover, the “weight bearing test (favoring the unoperated hind limb)” value in experiment [1] (4 weeks post-surgery) is recorded as “abrogates this effect”. In addition, in experiment [1] (55° C., 4 weeks post-surgery), the “hotplate paw-lick response time” value is “decreases the response time in a significant manner; also recorded: reduces response time”. Moreover, the “histopathology: destruction of the proteoglycan layer” value in experiment [1] was “completely abrogated this effect”. In addition, the “type 2 collagen expression in operated joints” value in experiment [1] (relative to actin, versus untreated OA surgery mice) is recorded as “drives ab initio collagen production”.

(Values after patent publication US20190022225A1, “PROTOCOL FOR INCREASING LIFE EXPECTANCY IN A TEST SUBJECT” (Mayo Foundation for Medical Education and Research, priority 2015, published 2019).)
